Results on 47 compounds are retold here after paper PMC11855827, “High-Throughput Screening of Five Compound Libraries for Anthelmintic Activity and Toxicity Leads to the Discovery of Two Flavonoid Compounds” (International Journal of Molecular Sciences, 2025).

By inhibition is commonly meant how much of the control response was suppressed.

Structures can show the parent of a compound that is named as a salt. Where two headings read alike, the source gives them in different places.

The test deals with C. elegans. In words: microbe, parasite or virus in culture. The settings on record: Caenorhabditis elegans.
Where [1] appears, read: 0 h, read-out: Percentage of motility inhibition 0 h, Table S2, C. elegans SS assay, 110 μM, 0 h, averages of 4 data points.
The mark [2] stands for this setting: 24 h, read-out: Percentage of motility inhibition 24 h, Table S2, C. elegans SS assay, 110 μM, 24 h, averages of 4 data points.
[3] abbreviates: 0 h, read-out: Percentage of motility inhibition 0 h.
The mark [4] stands for this setting: 24 h, read-out: Percentage of motility inhibition 24 h.

As for `C=C1C[C@@]23CC[C@H]4[C@@](C)(CCC[C@@]4(C)C(=O)O)[C@@H]2CC[C@@H]1C3` [Kaurenoic acid], the inhibition at 110 µM turned out to be 0% under setting [1] and 7% under setting [2].

For the compound `COc1ccc(-c2cc(=O)c3c(O)cc(O)c(-c4cc(-c5cc(=O)c6c(O)cc(O)cc6o5)ccc4OC)c3o2)cc1` [Isoginkgetin], the inhibition at 110 µM stood at 17% under setting [1] and 19% under setting [2].

For the compound `C=C1C(=O)[C@@]23[C@H](O)C[C@@H]4C(C)(C)CC[C@H](O)[C@@]4(CO)[C@@H]2CC[C@@H]1[C@H]3O` [Kamebakaurin], the inhibition at 110 µM under setting [1] turned out to be 0% and the inhibition at 110 µM under setting [2] was 11%. In the case of `N[C@@H](Cc1ccc(O)cc1)C(=O)O` [L-Tyrosine], the inhibition at 110 µM is 34% under setting [3] and 8% under setting [4]. For the compound `CC12CC3OC4O[C@H](CO)[C@@H](O)[C@H](O)[C@H]4OC34CC1C4(COC(=O)c1ccccc1)C(=O)O2` (stereo partly drawn) [Lactiflorin], the inhibition at 110 µM came out at 0% under setting [1] and 11% under setting [2].

With `Cc1nccc2c1[nH]c1ccccc12` [Harmane], the inhibition at 110 µM turned out to be 0% under setting [1] and 6% under setting [2].

`COC(=O)C1=CO[C@@H](O[C@@H]2O[C@H](CO)[C@@H](O)[C@H](O)[C@H]2O)[C@H]2[C@@H]1C=C[C@@]2(O)CO` [Gardenoside]: the inhibition at 110 µM by setting is: under setting [3], 0%; under setting [4], 8%. Consider `Cc1ncc([N+](=O)[O-])n1C` [Dimetridazole], for which the inhibition at 110 µM runs as follows: under setting [1], 0%; under setting [2], 14%. For `NC[C@H]1O[C@H](O[C@H]2[C@H](O)[C@@H](O[C@H]3O[C@H](CO)[C@@H](O)[C@H](N)[C@H]3O)[C@H](N)C[C@@H]2N)[C@H](N)C[C@@H]1O` [Tobramycin], in that order: 9% and 0%. In the same order, the values of `CC[C@H]1CN2CC[C@]3(C(=O)Nc4ccccc43)[C@@H]2C[C@@H]1/C(=C\OC)C(=O)OC` [Rhynchophylline] are 0% and 8%. In the same order, the values of `OCc1ccccc1` [Benzyl alcohol] are 2% and 4%. In the case of `CC[C@H]1CN2CC[C@H]1C[C@H]2[C@H](O)c1ccnc2ccc(OC)cc12` [Hydroquinine], the inhibition at 110 µM is, setting by setting: under setting [1], 0%; under setting [2], 0%.

For the compound `C[C@H](C[C@H](O)[C@@H](O)C(C)(C)O)C1=C2C[C@H](O)[C@H]3[C@@]4(C)CCC(=O)C(C)(C)[C@@H]4CC[C@]3(C)[C@@]2(C)CC1` [Alisol A], the inhibition at 110 µM under setting [1] was 3% and the inhibition at 110 µM under setting [2] came out at 2%.

In the case of `C[C@@H](c1nc(-c2ccc(C#N)cc2)cs1)[C@](O)(Cn1cncn1)c1cc(F)ccc1F` [Isavuconazole], the inhibition at 110 µM under setting [1] amounted to 25% and the inhibition at 110 µM under setting [2] turned out to be 0%.

With `CC(C)=CCc1cc([C@@H]2CC(=O)c3ccc(O)c(CC=C(C)C)c3O2)ccc1O` [Glabrol], the inhibition at 110 µM runs as follows: under setting [1], 11%; under setting [2], 9%. With `C=CC1=C(C(=O)O)N2C(=O)[C@@H](NC(=O)/C(=N\O)c3csc(N)n3)[C@H]2SC1` [Cefdinir], the inhibition at 110 µM under setting [1] came out at 0% and the inhibition at 110 µM under setting [2] was 0%. As to `C[C@@H]1C[C@@H](O)[C@@]2(O)[C@@]13C[C@@H](OC(=O)[C@H]3O)[C@](C)(O)[C@@]21COC1=O` [Anisatin], the inhibition at 110 µM reads like this: under setting [1], 0%; under setting [2], 20%.

With `COc1ccc(-c2cc(=O)c3c(O)c(OC)c(OC)c(OC)c3o2)cc1` [Gardenin B], the inhibition at 110 µM was found to be 6% under setting [1] and 0% under setting [2]. For the compound `CC(C)=CCC[C@](C)(O[C@@H]1O[C@H](CO[C@@H]2OC[C@H](O)[C@H](O)[C@H]2O)[C@@H](O)[C@H](O)[C@H]1O)[C@H]1CC[C@]2(C)[C@@H]1[C@H](O)C[C@@H]1[C@@]3(C)CC[C@H](O)C(C)(C)[C@@H]3[C@@H](O)C[C@]12C` [Ginsenoside F3], the inhibition at 110 µM is 2% under setting [1] and 34% under setting [2]. In the same order, the values of `CC(=O)OC[C@]12[C@H](OC(C)=O)[C@H](OC(C)=O)[C@@H]3[C@@H](OC(C)=O)[C@@]14O[C@@]3(C)COC(=O)c1cccnc1CCC(C)C(=O)O[C@@H]([C@H](OC(=O)c1ccco1)[C@@H]2OC(C)=O)[C@]4(C)O` (stereo partly drawn) [Wilforgine] are 12% and 5%. Consider `N[C@@H](CS)C(=O)O` [L-Cysteine], for which the inhibition at 110 µM reads like this: under setting [1], 4%; under setting [2], 7%. As for `CC(C)(C)OC(=O)N[C@H]1CCCCC/C=C\[C@@H]2C[C@@]2(C(=O)NS(=O)(=O)C2CC2)NC(=O)[C@@H]2C[C@@H](OC(=O)N3Cc4cccc(F)c4C3)CN2C1=O` [Danoprevir], the inhibition at 110 µM under setting [1] turned out to be 60% and the inhibition at 110 µM under setting [2] was 24%.

`COc1cc(C=O)ccc1O` [Vanillin]: the inhibition at 110 µM is, setting by setting: under setting [1], 24%; under setting [2], 11%. On to `CC(C)=CCC[C@](C)(O[C@@H]1O[C@H](CO[C@@H]2O[C@@H](CO)[C@H](O)[C@H]2O)[C@@H](O)[C@H](O)[C@H]1O)[C@H]1CC[C@]2(C)[C@@H]1[C@H](O)C[C@@H]1[C@@]3(C)CC[C@H](O[C@@H]4O[C@H](CO)[C@@H](O)[C@H](O)[C@H]4O[C@@H]4O[C@H](CO)[C@@H](O)[C@H](O)[C@H]4O)C(C)(C)[C@@H]3CC[C@]12C` [Ginsenoside Rc], for which the inhibition at 110 µM runs as follows: under setting [1], 0%; under setting [2], 0%. Turning to `COc1cc(O)c2c(=O)c(OC)c(-c3ccc(OC)c(O)c3)oc2c1` [Ayanin], the inhibition at 110 µM is, setting by setting: under setting [3], 0%; under setting [4], 22%. In the case of `COC(=O)Nc1nc2ccc(C(=O)c3ccccc3)cc2[nH]1` [Mebendazole], the inhibition at 110 µM under setting [1] stood at 18% and the inhibition at 110 µM under setting [2] came to 37%. `COc1cc2c(c(OC)c1OC)-c1ccc(OC)c(=O)cc1[C@@H](NC(C)=O)CC2` [Colchicine]: the inhibition at 110 µM stood at 0% under setting [3] and 6% under setting [4].

Turning to `C=C[C@@H]1C2=CCOC(=O)C2=CO[C@H]1O[C@@H]1O[C@H](CO)[C@@H](O)[C@H](O)[C@H]1O` [Gentiopicroside], the inhibition at 110 µM reads like this: under setting [1], 0%; under setting [2], 19%. `CC1=C2C(=O)[C@H]3[C@@H](CC=C4C[C@@H](O)CC[C@@]43C)[C@@H]2CC[C@]12O[C@@H]1C[C@H](C)CN[C@H]1[C@H]2C` [Jervine]: the inhibition at 110 µM came to 0% under setting [1] and 33% under setting [2].

Regarding `C=C1[C@H]2C[C@@]3([C@@H]1O)[C@@H](CC2=O)[C@]12[C@@H]4C[C@H]3[C@H]1N(CC)C[C@]4(C)CC[C@@H]2O` [Songorine], the inhibition at 110 µM reads like this: under setting [3], 5%; under setting [4], 9%. On to `O=C(O)CCc1nc2ccccc2[nH]1` [Procodazole], for which the inhibition at 110 µM was found to be 0% under setting [3] and 3% under setting [4]. For the compound `O=c1[nH]cnc2c1ncn2[C@H]1CC[C@@H](CO)O1` [Didanosine], the inhibition at 110 µM stood at 22% under setting [1] and 7% under setting [2]. Consider `COC(=O)C1=CO[C@@H](O[C@@H]2O[C@H](CO)[C@@H](O)[C@H](O)[C@H]2O)[C@@H]2C(CO)=CC[C@H]12` [Geniposide], for which the inhibition at 110 µM runs as follows: under setting [1], 0%; under setting [2], 0%. Consider `COC(=O)/C=C/C(=O)O` [Monomethyl fumarate], for which the inhibition at 110 µM is 0% under setting [1] and 15% under setting [2]. As to `CC1(C)CC[C@]2(C(=O)O[C@@H]3O[C@H](CO)[C@@H](O)[C@H](O)[C@H]3O)CC[C@]3(C)C(=CC[C@@H]4[C@@]5(C)CC[C@H](O[C@@H]6O[C@H](C(=O)O)[C@@H](O)[C@H](O)[C@H]6O[C@@H]6OC[C@@H](O)[C@H](O)[C@H]6O)C(C)(C)[C@@H]5CC[C@]43C)[C@@H]2C1` [Pseudoginsenoside RT1], the inhibition at 110 µM under setting [1] came out at 1% and the inhibition at 110 µM under setting [2] amounted to 0%.

In the case of `O=C(O)c1cc(=O)c2ccccc2[nH]1` [Transtorine], the inhibition at 110 µM under setting [2] was determined as 0%. Take `N#CC(c1ccc(Cl)cc1)c1c(Cl)cc(-n2ncc(=O)[nH]c2=O)cc1Cl` (stereo not drawn) [Diclazuril]: the inhibition at 110 µM runs as follows: under setting [1], 28%; under setting [2], 44%. With `COc1cc(O)c2c(=O)c(O)c(-c3ccc(O)c(O)c3)oc2c1` [Rhamnetin], the inhibition at 110 µM under setting [1] was 29% and the inhibition at 110 µM under setting [2] was 12%.

Regarding `Cc1ccc2c(Br)cc(Br)c(OC(=O)c3ccccc3)c2n1` [Broxaldine], the inhibition at 110 µM reads like this: under setting [1], 26%; under setting [2], 0%. For `C/C(=C\CC[C@@H](C)[C@H]1CC[C@@]2(C)C3=CC[C@H]4C(C)(C)[C@@H](O)CC[C@]4(C)C3=CC[C@]12C)CO` [Ganoderol B], in that order: 5% and 35%. For `O=c1c(O)c(-c2ccc(O)cc2O)oc2cc(O)cc(O)c12` [Morin], the inhibition at 110 µM was determined as 44% under setting [1] and 17% under setting [2]. In the case of `CC1=C(C(=O)O)N2C(=O)[C@@H](NC(=O)[C@H](N)C3=CCC=CC3)[C@H]2SC1` [Cefradine], the inhibition at 110 µM was determined as 37% under setting [1] and 11% under setting [2]. As to `Fc1ccccc1-c1nc2ccn(Cc3ccc(-c4ccc(C(F)(F)F)cc4C(F)(F)F)nn3)cc-2n1` [Tegobuvir], the inhibition at 110 µM came out at 68% under setting [1] and 34% under setting [2]. As for `CCn1cc(C(=O)O)c(=O)c2cnc(N3CCNCC3)nc21` [Pipemidic acid], the inhibition at 110 µM worked out at 31% under setting [1] and 14% under setting [2].

For `O=c1cc(-c2ccc(O)c(O)c2)oc2cc(O)cc(O)c12` [Luteolin], the inhibition at 110 µM turned out to be 4% under setting [1] and 0% under setting [2]. For `O=C1c2c(O)cc(O)cc2O[C@H](c2ccc(O)cc2)[C@H]1O` [Dihydrokaempferol], in that order: 2% and 0%. For `C[C@H]1COC2(CCN(c3nc(=O)c4cc(C(F)(F)F)cc([N+](=O)[O-])c4s3)CC2)O1` [BTZ043], in that order: 0% and 5%.
